Measurements reported in patent publication US7230139B2, “Diterpenoid compounds, compositions thereof and their use as anti-cancer or anti-fungal agents” (priority 2004, dated 2007).

Experiments:
[1] = Solubility by filtration and LC/MS; assay type: physicochemical; settings: in water (printed for Compound 74)
Description: To determine whether a compound is soluble in a solution, the solution was filtered on […] polytetrafluoroethylene filters (Whatman Inc. Clifton, N.J., USA) and the compound concentration in the filtrate was measured by LC/MS and compared to the expected concentration. If the concentration of the compound in the filtrate was equal +/−15% to the expected concentration, the compound was judged to be soluble in the solution.
The detection of Compound 74 or Compound 50 by LC/MS was carried out using the HPLC system that consisted of a Waters Alliance quaternary gradient HPLC pump (Waters, Milford, Mass., USA) and a ZQ2000 single quadrupole mass spectrometer (Waters, Milford, Mass., USA). The column used was XTerra MS C18: 50×2.1 mm, […] column at 20° C. Samples were injected and separated under the following conditions: The mobile phase “A” consisted of 5 mM ammonium formate, 0.1% formic acid in water and mobile phase “B” consisted of 5 mM ammonium formate, 0.1% formic acid in methanol. A linear gradient was applied as follows: 0 to 1 min, 94% “A” and 6% “B”; 1 to 4 min, 6% to 100% “B”; 4 to 8 min 100% “B”; 8 to 9 min, 100% “B” to 6% “B”; 9 to 12 min, 94% “A” and 6% “B”. […] Compounds were detected at m/z equal to their respective molecular weight plus 1.

[2] = target: T1, human placental alkaline phosphatase (Homo sapiens, UniProt P05187); experiment: Conversion of phosphate pro-drug by alkaline phosphatase in vitro; assay type: in vitro ADME; settings: 0.02 U/100 μL enzyme, 15 μM pro-drug, pH 7.4, within thirty minutes
T1 construct: purchased Sigma-Aldrich Canada Ltd
T1 sequence (P05187 23-506 limits assumed): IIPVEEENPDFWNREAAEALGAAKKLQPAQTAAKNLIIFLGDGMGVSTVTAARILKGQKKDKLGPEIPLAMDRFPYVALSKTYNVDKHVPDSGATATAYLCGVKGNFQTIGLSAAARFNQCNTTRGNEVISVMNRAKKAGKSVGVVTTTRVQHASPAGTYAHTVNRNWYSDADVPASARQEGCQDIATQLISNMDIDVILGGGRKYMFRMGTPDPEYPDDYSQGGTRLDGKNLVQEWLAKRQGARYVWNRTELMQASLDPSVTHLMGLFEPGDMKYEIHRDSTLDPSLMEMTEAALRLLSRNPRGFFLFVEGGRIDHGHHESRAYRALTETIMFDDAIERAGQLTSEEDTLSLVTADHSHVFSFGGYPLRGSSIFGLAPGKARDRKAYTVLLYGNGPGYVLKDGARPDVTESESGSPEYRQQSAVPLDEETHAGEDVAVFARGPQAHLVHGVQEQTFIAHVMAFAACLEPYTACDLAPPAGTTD
Description: The conversion into biologically active drug of phosphate pro-drugs by human placental alkaline phosphatase was measured in vitro using purified enzymes. Purified human placental alkaline phosphatase (Sigma-Aldrich Canada Ltd. Oakville, Ontario, Canada) was added at a concentration of 0.02 U/100 μL to a solution containing 15 μM of phosphate pro-drug, 20 mM Tris-HCl, pH 7.4 and 0.9% NaCl. The solutions were incubated for 10, 20 or 30 minutes. A solution containing 15 μM of phosphate pro-drug, 20 mM Tris-HCl, pH 7.4 and 0.9% NaCl was used a reference (time=0 minutes). To each solution, an equal volume (100 μL) of ice-cold acetonitrile was added, and then the mixture was vortexed and transferred to glass vials. A standard concentration curve of the pro-drug and the drug was prepared in 10 mM Tris-HCl, pH 7.4, 0.45% NaCl and 50% acetonitrile. All samples were immediately analyzed by LC/MS.

[3] = test system: A549 human non-small cell lung carcinoma; experiment: Cell viability, cellular ATP levels (Vialight HS); assay type: cell-based; settings: Table 5, A549, NSCL-adrenocarinoma, tumor, ATP levels 72 h post-treatment
From the text: (§1) The following cell lines were used: A549 human non-small cell lung carcinoma; C33A human cervical carcinoma; H1299 human non-small cell lung carcinoma; Hep-3B human hepatocellular carcinoma; MIA-Paca-2 human pancreatic carcinoma; PC-3 human prostatic adenocarcinoma (American Type Culture Collection, Manassas, Va., USA); HMEC normal human mammary epithelial cells; HUVEC normal human umbilical vein endothelial cells; and NHBE normal human bronchial epithelial cells (Cambrex Bio Science, Rockland, Me., USA). […] HMEC, HUVEC and NHBE cell lines were cultured in MEGM, EGM-2 and BEGM media, respectively (Cambrex Bio Science, Rockland, Me., USA). The cell lines were plated in 96-well microtitre plate at a density of 2–4×10^3 cells per well. After 16 hours, the cells were treated with various concentrations of Compound 50a or Compound 50b. Stock solutions of Compound 50a and Compound 50b, respectively, were prepared in dimethyl sulfoxide at a concentration of 5 mM. Serial dilutions were prepared in RPMI, 10% FBS and 2% DMSO and then added to the cells. The total DMSO in the cell cultures was 1%. […] The IC50s were determined using a best-fit sigmoidal dose response curve with variable slope.

[4] = test system: HMEC normal human mammary epithelial cells; experiment: Cell viability, cellular ATP levels (Vialight HS); assay type: cell-based; settings: Table 5, breast epithelial, ATP levels 72 h post-treatment
From the text: as §1

[5] = test system: HUVEC normal human umbilical vein endothelial cells; experiment: Cell viability, cellular ATP levels (Vialight HS); assay type: cell-based; settings: Table 5, ATP levels 72 h post-treatment
From the text: as §1

[6] = test system: Hep-3B human hepatocellular carcinoma; experiment: Cell viability, cellular ATP levels (Vialight HS); assay type: cell-based; settings: Hep3B, Table 5, liver, tumor, ATP levels 72 h post-treatment
From the text: as §1

[7] = test system: MIA-Paca-2 human pancreatic carcinoma; experiment: Cell viability, cellular ATP levels (Vialight HS); assay type: cell-based; settings: Table 5, MIA-Paca-2, pancreas, tumor, ATP levels 72 h post-treatment
From the text: as §1

[8] = test system: NHBE normal human bronchial epithelial cells; experiment: Cell viability, cellular ATP levels (Vialight HS); assay type: cell-based; settings: Table 5, ATP levels 72 h post-treatment
From the text: as §1

[9] = test system: PC-3 human prostatic adenocarcinoma; experiment: Cell viability, cellular ATP levels (Vialight HS); assay type: cell-based; settings: Table 5, PC-3, prostate, tumor, ATP levels 72 h post-treatment
From the text: as §1

[10] = test system: C33A human cervical carcinoma; experiment: Cell viability, cellular ATP levels (Vialight HS); assay type: cell-based; settings: C-33-A, Table 5, C33A, cervix, tumor, ATP levels 72 h post-treatment, read-out: IC50
From the text: as §1
(§2) The selected tumor cell lines included C33A human cervical carcinoma and H1299 human non-small cell lung carcinoma (American Type Culture Collection, Manassas, Va., USA). The cell lines were cultured in RPMI 1640 media supplemented with 10% FBS (Hyclone, Logan, Vt., USA), 100 U/mL penicillin, 100 μg/mL streptomycin and 2 mM L-glutamine (Invitrogen, Carlsbad, Calif., USA). The cell lines were plated in 96-well microtitre plate at a density of 2–4×10^3 cells per well. After 16 hours, the cells were treated with various concentrations of compound 66, 67, 68, 69 and 70, respectively. Stock solutions of compounds 66, 67, 68, 69 and 70 were prepared in dimethyl sulfoxide at a concentration of 5 mM. Serial dilutions were prepared in RPMI, 10% FBS and 2% DMSO and then added to the cells. The total DMSO on the cells was 1%. […] The IC50s were determined using a best-fit sigmoidal dose response curve with variable slope.

[11] = test system: H1299 human non-small cell lung carcinoma; experiment: Cell viability, cellular ATP levels (Vialight HS); assay type: cell-based; settings: NCI-H1299, Table 5, H1299, NSCL-LC carcinoma, tumor, ATP levels 72 h post-treatment vs untreated cells, read-out: IC50
From the text: as §1, §2

[12] = test system: SW480 human colon carcinoma cancer cells; experiment: SW480 colon carcinoma xenograft in SCID mice; assay type: in vivo, CB17 SCID/SCID female mice; settings: i.v. 10 mg/kg once a day for five days
Description: The resultant mice are a model for a human having colon carcinoma cancer.
The SW480 human colon carcinoma cancer cells were maintained in RPMI supplemented with 10% inactivated fetal bovine serum and 1% penicillin-streptomycin-L-Glutamine, under 5% CO2 at 37° C., and passaged twice a week. The cells were grown at a confluency lower than 70% and then collected with Trypsin (Bio-Whittaker, Md., USA). The cells were then centrifuged and washed twice using phosphate buffered saline solution (PBS) and resuspended in PBS at 1×10^6 cells per 100 μl. Viability was examined by staining with Trypan Blue and only flasks with cell viability of greater than 95% were used for in vivo studies.
(§3) SW480 cells were transplanted subcutaneously into the flank of female CB 17 SCID/SCID mice. Each mouse was inoculated with a suspension of 1×10^6 tumor cells per 100 μL on day zero. The following five treatment groups of ten mice each were used: (a) a negative control group treated with intravenous (i.v.) injection of vehicle, (b) a group treated with i.v. injection of a Compound 50, (c) a group treated with i.v. injection of a Compound 50a, (d) a group treated with i.v. injection of Compound 50b, (e) a group treated with i.v. injection of Compound 74a.
(§4) Treatment started on day twelve after SW480 cells transplantation and Compounds 50, 50a, 50b and 74a were administered i.v. once daily for five consecutive days at a dose of 10, 10, 10 and 50 mg/kg, respectively. Compound 50, 50a and 50b were prepared as a working solution of 1.5 mg/mL in a vehicle solution of 20% Cremaphor EL (Sigma, St. Louis, Miss., USA), and 10% Ethanol. Compound 74a was prepared as a working solution of 5 mg/mL in a vehicle solution of 5% Dextrose (Abbot Laboratories, QC, Canada). The negative control groups were treated with vehicle solution of 20% Cremaphor EL and 10% Ethanol alone.
(§5) The mice were weighed and the tumors measured on day 12 and every 2 to 3 days after treatment commenced. Observations continued for 23 days after initial tumor implantation. The changes in body weight and in the calculated tumor volume were plotted (FIGS. 9 and 10). Statistical analysis was performed using GraphPad Prism (GraphPad Software Inc., San Diego, Calif.). Two-way ANOVA was used to determine how the treatment affected tumor growth over time. Following the two-way ANOVA, post-tests were performed using the Benferroni method to determine the statistical difference between the mean tumor-size of the two groups being compared on every day that the tumors were measured.

[13] = Body weight of SW480 tumor-bearing mice; assay type: in vivo, CB17 SCID/SCID female mice; settings: i.v. once daily for five days; 10 mg/kg (50, 50a, 50b), 50 mg/kg (74a)
Description: as §3, §4, §5

| SMILES | solubility [1] [mg/mL] | Conversion of pro-drug into drug Compound 50 [2] | IC50 [3] [µM] | IC50 [4] [µM] | IC50 [5] [µM] | IC50 [6] [µM] | IC50 [7] [µM] | IC50 [8] [µM] | IC50 [9] [µM] | IC50 [10] [µM] | IC50 [11] [µM] | Tumor growth compared to vehicle [12] | Change in body weight [13] |
| --- | --- | --- | --- | --- | --- | --- | --- | --- | --- | --- | --- | --- | --- |
| COc1ccc2c(c1)C1(C)C=CC(=O)C(C)(C)C1=C(OP(=O)(O)O)C2=O (racemic) [Compound 74] | ≥ 10 | convert a fraction of the pro-drug |  |  |  |  |  |  |  |  |  |  |  |
| COc1ccc2c(c1)[C@]1(C)C=CC(=O)C(C)(C)C1=C(O)C2=O [Compound 50b] |  |  | 0.58 | 2.1 | 1.3 | 0.77 | 0.25 | 1.2 | 0.35 | 0.45 | 0.23 | significant reduction (p<0.001) | non-significant change in body weight |
